Here are results for 3 compounds from patent publication US7645753B2, “Benzothiazole, thiazolopyridine, benzooxazole and oxazolopyridine derivatives” (Hoffmann-La Roche Inc., priority 2005, dated 2010).

A word on the Ki: it is the dissociation constant of the complex between target and ligand, obtained from inhibition or displacement.

T1 sequence (P35346 whole entry): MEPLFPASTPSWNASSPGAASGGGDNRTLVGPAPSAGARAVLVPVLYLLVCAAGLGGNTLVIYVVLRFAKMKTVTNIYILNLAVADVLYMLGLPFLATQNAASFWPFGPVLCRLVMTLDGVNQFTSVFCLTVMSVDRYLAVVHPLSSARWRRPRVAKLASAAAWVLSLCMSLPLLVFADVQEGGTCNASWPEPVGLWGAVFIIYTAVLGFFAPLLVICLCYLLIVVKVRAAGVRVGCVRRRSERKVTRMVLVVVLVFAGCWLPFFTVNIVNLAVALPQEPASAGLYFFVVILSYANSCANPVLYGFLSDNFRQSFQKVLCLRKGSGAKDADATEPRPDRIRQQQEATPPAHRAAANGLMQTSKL

The experiment concerns the target T1, human subtype 5 somatostatin receptor (Homo sapiens, UniProt P35346).
T1 construct: host or cells: CHO cells, stably transfected; membranes prepared by sonication and fractionating centrifugation
The experiment can be described thus: Radioligand binding to membranes of CHO cells expressing human SSTR5 (125I-labeled 11-Tyr somatostatin-14 tracer). Particulars: Ki calculated from IC50 by Cheng-Prussoff equation. The procedure: A CHO cell line stably transfected with a plasmid encoding the human subtype 5 somatostatin receptor (GenBank accession number D16827) was obtained from Euroscreen. Cells were cultured and used for binding and functional assays.
Membranes of these cells were prepared by sonication in the presence of protease inhibitors and subsequent fractionating centrifugation. The protein concentration in the membrane preparation was determined using a commercial kit (BCA kit, Pierce, USA). Membranes were stored at −80° C. until use. After thawing, membranes were diluted in assay buffer (50 mM Tris-HCl at pH 7.4, 5 mM MgCl2 and 0.20% BSA) and subjected to dounce homogenization.
For binding studies, 0.1 mL membrane suspension, corresponding to app. 6×10^−15 mol receptor, was incubated for 1 h at room temperature with 0.05 nM ^125I-labeled tracer (11-Tyr somatostatin-14, Perkin-Elmer) and either test compounds in varying concentrations or, for the determination of non-specific binding, 0.001 mM non-labeled somatostatin-14. The incubation was stopped by filtration through GF/B glassfiber filters and washing with ice-cold wash buffer (50 mM Tris-HCl at pH 7.4). The bound radioactivity was measured after application of a scintillation cocktail (Microscint 40) and expressed as disintegrations per minute (dpm).
The receptor concentration was determined in a prior saturation experiment where a fixed, arbitrary amount of membranes was incubated with a concentration range of radio-labeled tracer. This allows estimating the total number of specific binding sites per amount of protein (i.e., Bmax), typically between 1 and 5 pmol/mg.
The concentration of the test compound required to result in half maximal inhibition of binding of the radio-labeled tracer (IC50) was estimated from a concentration-versus-dpm graph. The binding affinity (Ki) was calculated from the IC50 by applying the Cheng-Prussoff equation for single binding sites.
As for `CCOc1cc(CN2CCC(Nc3nc4ccc(Cl)cc4o3)CC2)cc(OCC)c1-n1cccc1` [Example 94, (6-chloro-benzooxazol-2-yl)-[1-(3,5-diethoxy-4-pyrrol-1-yl-benzyl)-piperidin-4-yl]-amine], the Ki is 59 nM.

Consider `CCOc1cc(CN2CCC(Nc3nc4cc(NC(=O)CC)ccc4o3)CC2)ccc1OC` [Example 243, N-{2-[1-(3-ethoxy-4-methoxy-benzyl)-piperidin-4-ylamino]-benzooxazol-5-yl}-propionamide], for which the Ki is 293 nM.

On to `CCOc1cc(CN2CCC(Nc3nc4cc(S(N)(=O)=O)ccc4o3)CC2)cc(OCC)c1-n1cccc1` [Example 129, 2-[1-(3,5-diethoxy-4-pyrrol-1-yl-benzyl)-piperidin-4-ylamino]-benzooxazole-5-sulfonic acid amide], for which the Ki was 4.1 nM.
